Measured values taken from the supplement of paper PMC10307832.

How the values were obtained:
Assay in all cases: relative viability (nuclei count vs DMSO), 5 days (fraction); higher = more cells survive
CUDC-101 + Phenformin = compound: C#Cc1cccc(Nc2ncnc3cc(OC)c(OCCCCCCC(=O)NO)cc23)c1 [CUDC-101] + N=C(N)NC(=N)NCCc1ccccc1 [Phenformin] (partner 250 µM)
In short: (§1)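 Lung cancer cell lines in 1536-well plates were dosed by pin tool the day after seeding, either with one drug alone or with a fixed anchor-drug dose plus five library-drug doses (not always all listed) in √10 steps. After 5 days, cells were fixed and their nuclei stained in one step (final 0.05% Triton X-100, 1% formaldehyde, 1 ug/ml Hoechst), then counted on 4× images. Relative viability is the nuclei count in treated wells divided by that in vehicle wells. Values are medians of duplicate plates.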

NVP-TAE684 + Navitoclax = compound: COc1cc(N2CCC(N3CCN(C)CC3)CC2)ccc1Nc1ncc(Cl)c(Nc2ccccc2S(=O)(=O)C(C)C)n1 [NVP-TAE684] + CC1(C)CCC(c2ccc(Cl)cc2)=C(CN2CCN(c3ccc(C(=O)NS(=O)(=O)c4ccc(N[C@H](CCN5CCOCC5)CSc5ccccc5)c(S(=O)(=O)C(F)(F)F)c4)cc3)CC2)C1 [Navitoclax] (partner 0.5 µM)
In short: as §1

Vandetanib + Palbociclib = compound: COc1cc2/c(=N/c3ccc(Br)cc3F)nc[nH]c2cc1OCC1CCN(C)CC1 [Vandetanib] + CC(=O)c1c(C)c2cnc(Nc3ccc(N4CCNCC4)cn3)nc2n(C2CCCC2)c1=O [Palbociclib] (partner 0.5 µM)
In short: as §1

[1] = compound: C1=CC=C2C(=C1)N=C(S2)C(C#N)C3=NC(=NC=C3)NCCC4=CN=CC=C4 + CC(=O)Nc1cccc(-n2c(=O)n(C3CC3)c(=O)c3c(Nc4ccc(I)cc4F)n(C)c(=O)c(C)c32)c1 [Trametinib] (partner 0.02 µM)
In short: as §1

Cell Line	relative viability (CUDC-101 + Phenformin; first compound 0.01 µM)	relative viability (CUDC-101 + Phenformin; first compound 0.03162 µM)	relative viability (CUDC-101 + Phenformin; first compound 0.1 µM)	relative viability (CUDC-101 + Phenformin; first compound 0.3162 µM)	relative viability (CUDC-101 + Phenformin; first compound 1 µM)	relative viability (NVP-TAE684 + Navitoclax; first compound 0.2 µM)	relative viability (NVP-TAE684 + Navitoclax; first compound 0.6325 µM)	relative viability (NVP-TAE684 + Navitoclax; first compound 2 µM)	relative viability (Vandetanib + Palbociclib; first compound 0.02 µM)	relative viability (Vandetanib + Palbociclib; first compound 0.06325 µM)	relative viability (Vandetanib + Palbociclib; first compound 0.2 µM)	relative viability (Vandetanib + Palbociclib; first compound 0.6325 µM)	relative viability (Vandetanib + Palbociclib; first compound 2 µM)	relative viability ([1]; first compound 0.005 µM)	relative viability ([1]; first compound 0.01581 µM)	relative viability ([1]; first compound 0.05 µM)	relative viability ([1]; first compound 0.1581 µM)	relative viability ([1]; first compound 0.5 µM)
EMC-BAC-2	0.616	0.472	0.549	0.487	0.365	1.12	1.13	0.695	0.533	0.499	0.546	0.515	0.502	1.03	0.938	0.812	0.963	0.855
NCI-H1437	0.313	0.341	0.275	0.275	0.392	1.31	1.12	0.631	0.295	0.32	0.346	0.302	0.341	0.503	0.55	0.52	0.539	0.427
NCI-H1944	0.218	0.192	0.181	0.193	0.151	1.19	0.961	1.08	0.323	0.343	0.322	0.276	0.303	0.429	0.463	0.379	0.405	0.398
NCI-H838	0.64	0.564	0.696	0.712	0.404	1.43	1.09	0.403	0.219	0.227	0.243	0.216	0.219	0.576	0.507	0.492	0.561	0.593
HCC-827	0.376	0.18	0.161	0.143	0.14	0.935	0.982	0.978	0.479	0.468	0.227	0.263	0.166	0.503	0.534	0.497	0.486	0.497
NCI-H2342	0.619	0.621	0.667	0.643	0.43	–	–	–	0.525	0.507	0.518	0.477	0.569	0.733	0.89	0.867	0.798	0.844
LOU-NH91	0.736	0.56	0.534	0.587	0.393	0.644	0.607	0.463	0.564	0.524	0.535	0.543	0.416	0.794	0.806	0.764	0.794	0.779
NCI-H3122	0.382	0.361	0.389	0.356	0.338	0.282	0.525	0.176	0.198	0.183	0.126	0.178	0.228	0.178	0.238	0.221	0.216	0.197
NCI-H1563	0.664	0.643	0.745	0.613	0.659	–	–	–	–	–	–	–	–	–	–	–	–	–
NCI-H1734	0.362	0.419	0.425	0.448	0.29	0.844	0.91	0.769	0.35	0.348	0.314	0.373	0.295	0.629	0.745	0.578	0.75	0.649
EPLC-272H	0.279	0.297	0.201	0.136	0.114	1.02	–	1.48	0.329	0.321	0.329	0.282	0.311	0.392	0.277	0.301	0.336	0.265
RERF-LC-KJ	0.419	0.441	0.418	0.387	0.387	1.14	1.04	0.67	1.05	1.03	0.673	0.993	0.869	0.916	0.877	0.911	0.961	0.688
EBC-1	–	–	–	–	–	0.323	0.247	0.245	–	–	–	–	–	–	–	–	–	–
HARA	0.4	0.397	0.476	0.501	0.248	1.02	–	0.701	0.261	0.224	0.225	0.293	0.221	0.685	0.475	0.49	1.31	0.576
NCI-H1651	0.34	0.352	0.371	0.415	0.432	1.41	1.07	0.964	0.484	0.501	0.515	0.515	0.446	0.825	0.831	0.827	0.933	0.857
NCI-H2405	0.392	0.37	0.442	0.397	0.352	0.897	0.709	0.437	0.494	0.39	0.514	0.592	0.514	0.582	0.645	0.63	0.643	0.599
NCI-H596	0.886	0.729	0.751	0.772	0.698	0.936	0.969	0.509	–	–	–	–	–	0.7	0.86	0.762	0.777	0.765
NCI-H2009	0.511	0.496	0.534	0.499	0.404	1.2	1.15	0.95	0.221	0.3	0.197	0.25	0.25	0.26	0.264	0.26	0.314	0.334
NCI-H2170	0.407	0.377	0.459	0.439	0.375	0.56	0.585	0.591	0.402	0.434	0.398	0.376	0.394	0.623	0.924	0.884	1.04	0.655
NCI-H1648	–	–	–	–	–	–	–	–	0.27	0.245	0.2	0.284	0.24	–	0.486	–	0.499	0.498
NCI-H1623	0.565	0.597	0.539	0.631	0.457	–	–	–	–	–	–	–	–	–	–	–	–	–
LU99A	0.825	0.682	0.676	0.947	0.572	0.802	0.769	0.362	0.378	0.428	0.337	0.359	0.376	0.463	0.543	–	0.661	0.555

Cell Line	relative viability (CUDC-101 + Phenformin; first compound 0.01 µM)	relative viability (CUDC-101 + Phenformin; first compound 0.03162 µM)	relative viability (CUDC-101 + Phenformin; first compound 0.1 µM)	relative viability (CUDC-101 + Phenformin; first compound 0.3162 µM)	relative viability (CUDC-101 + Phenformin; first compound 1 µM)	relative viability (NVP-TAE684 + Navitoclax; first compound 0.2 µM)	relative viability (NVP-TAE684 + Navitoclax; first compound 0.6325 µM)	relative viability (NVP-TAE684 + Navitoclax; first compound 2 µM)	relative viability (Vandetanib + Palbociclib; first compound 0.02 µM)	relative viability (Vandetanib + Palbociclib; first compound 0.06325 µM)	relative viability (Vandetanib + Palbociclib; first compound 0.2 µM)	relative viability (Vandetanib + Palbociclib; first compound 0.6325 µM)	relative viability (Vandetanib + Palbociclib; first compound 2 µM)	relative viability ([1]; first compound 0.005 µM)	relative viability ([1]; first compound 0.01581 µM)	relative viability ([1]; first compound 0.05 µM)	relative viability ([1]; first compound 0.1581 µM)	relative viability ([1]; first compound 0.5 µM)
PC-3 [JPC-3]	0.484	0.486	0.362	0.402	0.351	0.862	0.822	0.658	0.509	0.527	0.592	0.553	0.464	0.689	–	0.642	0.737	0.636
A549	0.172	0.192	0.143	0.158	0.141	1.38	–	0.263	–	–	–	–	–	–	–	–	–	–
HCC-44	0.163	0.185	0.22	0.185	0.139	–	1.02	0.453	0.91	0.914	0.967	0.979	0.961	1.06	1.1	1.02	1.07	0.967
H3255	0.367	0.322	–	0.31	0.166	0.6	0.417	0.382	0.316	0.311	0.32	0.298	0.245	0.533	0.577	0.62	0.697	0.726
LXF-289	0.536	0.523	0.55	0.493	0.408	0.966	0.966	0.803	0.588	0.565	0.518	0.575	0.558	0.601	0.726	0.716	0.706	0.577
PC-14	0.854	0.476	0.22	0.193	0.0975	1.13	1.05	0.894	0.536	0.436	0.0488	0.117	0.0605	0.411	0.933	0.633	0.948	0.809
NCI-H661	0.284	0.291	0.291	0.311	0.246	–	–	–	0.4	0.411	0.433	0.458	0.392	0.423	0.535	0.542	0.674	0.589
EKVX	0.255	0.229	0.211	0.244	0.222	0.994	0.907	0.613	0.415	0.396	0.345	0.291	0.176	0.228	0.328	0.282	0.299	0.294
Calu-6	–	–	–	–	–	0.776	0.694	0.269	–	–	–	–	–	–	–	–	–	–
NCI-H1703	–	–	–	–	–	1.17	1.04	0.215	–	–	–	–	–	–	–	–	–	–
NCI-H322M	0.786	0.69	0.64	0.586	0.438	1.21	1.3	1.2	0.484	0.457	0.494	0.446	0.414	0.483	0.525	0.489	0.569	0.558
SK-MES-1	0.705	0.679	0.705	0.606	0.57	1.29	1.22	0.78	0.349	0.292	0.243	0.332	0.294	0.576	0.555	0.531	0.604	0.629
NCI-H1299	–	–	–	–	–	1.08	1.05	1.05	–	–	–	–	–	–	–	–	–	–
NCI-H1355	0.453	0.431	0.453	0.47	0.387	0.882	0.992	0.622	0.437	0.399	0.408	0.387	0.373	0.439	0.425	0.473	0.494	0.324
NCI-H358	0.378	0.346	0.32	0.312	0.193	–	–	–	0.146	0.162	0.119	0.133	0.109	0.125	0.132	0.113	0.139	0.15
SW 900	0.666	0.538	0.687	0.499	0.643	–	–	–	0.624	0.547	–	0.48	0.409	0.586	0.806	0.584	1.06	0.648
NCI-H650	0.453	0.475	0.465	0.385	0.38	–	–	–	0.358	0.317	0.366	0.323	0.291	0.969	0.968	0.863	1.04	1.04
NCI-H522	0.677	0.688	0.777	0.744	0.572	–	–	–	0.89	0.909	1.14	0.961	0.986	0.98	0.846	0.766	0.755	0.761
IA-LM	–	–	–	–	–	0.762	0.641	0.687	–	–	–	–	–	–	–	–	–	–
LCLC-103H	0.384	0.367	0.36	0.357	0.31	–	–	–	0.439	0.521	0.388	0.478	0.406	0.648	0.735	0.692	0.695	0.659
ABC-1	0.256	0.256	0.212	0.247	0.186	–	–	–	0.91	0.541	0.693	0.708	0.643	–	–	–	–	–
